Here are results for 32 molecules from patent publication US20250340563A1, “FUSED PYRIDAZINE DERIVATIVES AS NLRP3 INHIBITORS” (Takeda Pharmaceutical Company Limited, priority 2022, published 2025).

One assay deals with NF-κB pathway. Description: TNF-α assay in IFN-γ-differentiated, LPS-stimulated THP-1 cells (ELISA). It is filed as cell-based. Particulars: Homo sapiens, 50 ng/mL LPS, 3 hours. Here is the method: Monocytic THP-1 cells (ATCC: TIB-202) are maintained in accordance with the provider's instructions in RPMI media (Life Technologies, Cat #A10491-01); RPMI is supplemented with 10% heat inactivated fetal bovine serum (Hyclone Cat #SH30396.03). The cells are differentiated into macrophages by the addition of 25 ng/mL IFN-γ for 24 hours at 37° C./5% CO2. Media is exchanged with fresh media with no FBS. The cells are plated at 40,000 cells per well in 384-well flat-bottom cell culture plates (Costar 3764) containing compounds (added in 1:1000) in a 1:3.16 serial dilution series in DMSO and are incubated for 30 minutes at 37° C./5% CO2. The NF-κB pathway is activated with the addition of 50 ng/mL LPS and the cells are incubated for 3 hours at 37° C./5% CO2. At the end of the incubation period, supernatant (40 μL) is removed, and […] are monitored using an ELISA (Human TNF-α ELISA, R&D systems, Cat #DY210) according to the manufacturer's instructions.
The IC50 values are calculated from a plot of percentage of inhibition versus the inhibitor concentration by a logistics curve fit according to: Y=[Bottom+(Top−Bottom)]/(1+10^[(Log IC50−X)·Hill Slope], where Y is the % inhibition at the inhibitor concentration, X, “Bottom” is the lowest inhibition value, i.e. 0%, “Top” is the maximum inhibition value, i.e. 100%, and the “Hill Slope” describes the slope of the sigmoidal curve between the “Bottom” and “Top” values. The curve fitting was conducted with internally developed software.

Another assay concerns the target NLRP3 inflammasome (Homo sapiens, UniProt Q96P20). Put plainly: IL-1β assay in IFN-γ-differentiated, LPS-primed, ATP-activated THP-1 cells (ELISA). The assay is classed as cell-based. The conditions noted are these: 50 ng/mL LPS priming, 2.5 mM ATP activation, 2 hours. The method, boiled down: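 Supernatant IL-1β is quantified by ELISA after 2 h of 2.5 mM ATP stimulation at 37 °C, with IC50 taken from a four-parameter fit of % inhibition. Before this, THP-1 macrophages (25 ng/mL IFN-γ, 24 h) were LPS-primed (50 ng/mL, 24 h, no FBS) and exposed to serially diluted compound for 30 min.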

NLRP3 inflammasome, sequence (Q96P20 whole entry): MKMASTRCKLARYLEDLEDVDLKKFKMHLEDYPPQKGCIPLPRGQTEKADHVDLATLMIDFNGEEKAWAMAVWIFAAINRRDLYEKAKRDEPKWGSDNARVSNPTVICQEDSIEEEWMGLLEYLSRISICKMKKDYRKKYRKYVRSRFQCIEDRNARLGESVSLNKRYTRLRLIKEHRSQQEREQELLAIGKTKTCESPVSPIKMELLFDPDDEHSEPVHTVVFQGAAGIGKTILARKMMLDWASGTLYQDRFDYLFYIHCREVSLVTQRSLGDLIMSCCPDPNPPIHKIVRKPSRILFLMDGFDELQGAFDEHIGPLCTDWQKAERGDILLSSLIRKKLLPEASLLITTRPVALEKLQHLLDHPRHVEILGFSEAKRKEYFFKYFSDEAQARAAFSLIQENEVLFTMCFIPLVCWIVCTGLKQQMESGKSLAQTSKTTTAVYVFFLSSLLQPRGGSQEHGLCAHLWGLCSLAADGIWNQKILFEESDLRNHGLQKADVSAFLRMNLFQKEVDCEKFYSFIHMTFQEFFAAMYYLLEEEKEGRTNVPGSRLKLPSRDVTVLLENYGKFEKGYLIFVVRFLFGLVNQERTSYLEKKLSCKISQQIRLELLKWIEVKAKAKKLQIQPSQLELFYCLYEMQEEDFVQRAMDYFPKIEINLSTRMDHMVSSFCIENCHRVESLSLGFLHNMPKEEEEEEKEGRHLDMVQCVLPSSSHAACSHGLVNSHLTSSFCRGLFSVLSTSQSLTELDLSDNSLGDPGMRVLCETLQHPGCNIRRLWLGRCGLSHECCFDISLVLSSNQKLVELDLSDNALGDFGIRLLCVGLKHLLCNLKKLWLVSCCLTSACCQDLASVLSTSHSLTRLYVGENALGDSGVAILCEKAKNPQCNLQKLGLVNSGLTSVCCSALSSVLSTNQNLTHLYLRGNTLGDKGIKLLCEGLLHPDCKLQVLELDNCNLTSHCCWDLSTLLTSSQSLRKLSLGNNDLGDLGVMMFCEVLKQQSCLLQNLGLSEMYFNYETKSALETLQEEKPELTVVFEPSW

With `CN1C[C@H](F)C[C@@H](Nc2nnc(-c3ccc(Cl)cc3F)c3ccccc23)C1` [Example 176, 4-(4-chloro-2-fluorophenyl)-N-((3R,5R)-5-fluoro-1-methylpiperidin-3-yl)phthalazin-1-amine], the IC50 in the assay with NF-κB pathway is greater than 30000 nM; at NLRP3 inflammasome it was 37 nM.
For `CN1C[C@H](F)C[C@@H](Nc2nnc(-c3ccc(OC(F)(F)F)cc3F)c3c2COCC3)C1` [Example 205, N-((3R,5R)-5-fluoro-1-methylpiperidin-3-yl)-1-(2-fluoro-4-(trifluoromethoxy)phenyl)-7,8-dihydro-5H-pyrano[3,4-d]pyridazin-4-amine] the same measures were greater than 30000 nM and 64 nM.
Turning to `COc1ccc(-c2nnc(N[C@@H]3C[C@@H](F)CN(C)C3)c3ccccc23)cc1` [Example 177, N-((3R,5R)-5-fluoro-1-methylpiperidin-3-yl)-4-(4-methoxyphenyl)phthalazin-1-amine], the IC50 was greater than 30000 nM with NF-κB pathway and 53 nM on NLRP3 inflammasome.
In the case of `COc1ccc(-c2nnc(NC3CCCN(C)C3)c3cnccc23)cc1` (stereo not shown) [Example 72, 1-(4-methoxyphenyl)-N-(1-methylpiperidin-3-yl)pyrido[3,4-d]pyridazin-4-amine], the figures for the IC50 with NF-κB pathway and at NLRP3 inflammasome were greater than 30000 nM and 52 nM, respectively.
For `CN1CCC[C@@H](Nc2nnc(-c3ccc(Cl)cc3O)c3cnccc23)C1` [Example 75, (R)-5-chloro-2-(1-((1-methylpiperidin-3-yl)amino)pyrido[3,4-d]pyridazin-4-yl)phenol], in that order: greater than 30000 nM and 3 nM.
For `CN1CCC[C@@H](Nc2nnc(-c3ccc(F)cc3O)c3ccncc23)C1` [Example 93, (R)-5-fluoro-2-(4-((1-methylpiperidin-3-yl)amino)pyrido[3,4-d]pyridazin-1-yl)phenol] the same measures were greater than 30000 nM and 30 nM.
`COc1ccc(-c2nnc(N[C@@H]3CCCN(C4(C)CC4)C3)c3cnccc23)cc1` [Example 168, (R)-1-(4-methoxyphenyl)-N-(1-(1-methylcyclopropyl)piperidin-3-yl)pyrido[3,4-d]pyridazin-4-amine]: the IC50 in the assay on NF-κB pathway was greater than 30000 nM; against NLRP3 inflammasome, 5 nM.
For `CN1C[C@@H](F)C[C@@H](Nc2nnc(-c3ccc(Cl)cc3)c3ccccc23)C1` [Example 185, 4-(4-chlorophenyl)-N-((3R,5S)-5-fluoro-1-methylpiperidin-3-yl)phthalazin-1-amine] the same measures were greater than 30000 nM and 311 nM.
Consider `Cc1cc2c(NC3CCCN(C)C3)nnc(-c3ccc(Cl)cc3)c2cn1` (stereo not shown) [Example 81, 4-(4-chlorophenyl)-7-methyl-N-(1-methylpiperidin-3-yl)pyrido[3,4-d]pyridazin-1-amine], for which the IC50 was greater than 30000 nM in the assay on NF-κB pathway and 67 nM against NLRP3 inflammasome.
For `COc1ccc(-c2nnc(N[C@@H]3C[C@@H](F)CN(C)C3)c3ccccc23)c(F)c1` [Example 178, N-((3R,5R)-5-fluoro-1-methylpiperidin-3-yl)-4-(2-fluoro-4-methoxyphenyl)phthalazin-1-amine] the same measures were greater than 30000 nM and 81 nM.
For `C[C@]1(O)C[C@@H](Nc2nnc(-c3ccc(Cl)cc3O)c3ccncc23)C1` [Example 95, cis-5-chloro-2-(4-((-3-hydroxy-3-methylcyclobutyl)amino)pyrido[3,4-d]pyridazin-1-yl)phenol] the same measures were greater than 30000 nM and 10 nM.
At NLRP3 inflammasome, `CCN1CCc2c(-c3ccc(Cl)cc3)nnc(NC3CCCN(C)C3)c2C1` (stereo not shown) [Example 102, 1-(4-chlorophenyl)-6-ethyl-N-(1-methylpiperidin-3-yl)-5,6,7,8-tetrahydropyrido[3,4-d]pyridazin-4-amine] had an IC50 of 692 nM.
`CC(C)(C)c1ccc(-c2nnc(Nc3cccc(O)c3)c3ccccc23)cn1` [Example 9, 3-((4-(6-(tert-butyl)pyridin-3-yl)phthalazin-1-yl)amino)phenol] had an IC50 against NLRP3 inflammasome of 1660 nM.
In turn, `Clc1ccc(-c2nnc(NC3CCN4CCC3C4)c3ccccc23)cc1` (stereo not shown) [Example 167, N-(1-azabicyclo[3.2.1]octan-4-yl)-4-(4-chlorophenyl)phthalazin-1-amine] yielded an IC50 against NLRP3 inflammasome of 3390 nM.
On to `COc1ccc(-c2nnc(NCC(C)N3CCCC3)c3ccccc23)cc1` (stereo not shown) [Example 129, 4-(4-methoxyphenyl)-N-(2-(pyrrolidin-1-yl)propyl)phthalazin-1-amine], for which 2820 nM corresponded to half-maximal inhibition against NLRP3 inflammasome (IC50).
Still for that read-out and setting: in the case of `COc1ccc(-c2nnc(N[C@@H]3CCCN(C)C3)c3c(C)nccc23)c(O)c1` [Example 78, (R)-5-methoxy-2-(5-methyl-4-((1-methylpiperidin-3-yl)amino)pyrido[3,4-d]pyridazin-1-yl)phenol] it was 183 nM; in that of `COc1cc(F)ccc1-c1nnc(N[C@@H]2C[C@@H](F)CN(C)C2)c2ccncc12` [Example 182, N-((3R,5R)-5-fluoro-1-methylpiperidin-3-yl)-4-(4-fluoro-2-methoxyphenyl)pyrido[3,4-d]pyridazin-1-amine], 3470 nM; in that of `COc1ccc(-c2nnc(N(C)C3CCCN(C)C3)c3ccccc23)cc1` (stereo not shown) [Example 45, 4-(4-methoxyphenyl)-N-methyl-N-(1-methylpiperidin-3-yl)phthalazin-1-amine], 4120 nM.
In the case of `Cc1ccc(-c2nnc(NC34CCC(O)(CC3)C4)c3c2CCOC3)c(O)c1` [Example 231, 4-((1-(2-hydroxy-4-methylphenyl)-7,8-dihydro-5H-pyrano[3,4-d]pyridazin-4-yl)amino)bicyclo[2.2.1]heptan-1-ol], the IC50 at NLRP3 inflammasome was 195 nM.
The molecule `COc1cc(F)ccc1-c1nnc(N[C@@H]2C[C@@H](F)CN(C)C2)c2cnccc12` [Example 181, N-((3R,5R)-5-fluoro-1-methylpiperidin-3-yl)-1-(4-fluoro-2-methoxyphenyl)pyrido[3,4-d]pyridazin-4-amine] displayed an IC50 against NLRP3 inflammasome of 1000 nM.
Still for that read-out and setting: in the case of `Clc1ccc(-c2nnc(NC3CCN(Cc4ccccc4)CC3)c3ccccc23)cc1` [Example 163, N-(1-benzylpiperidin-4-yl)-4-(4-chlorophenyl)phthalazin-1-amine] it was 3020 nM; in that of `Clc1ccc(-c2nnc(NC3CN4CCC3C4)c3ccccc23)cc1` (stereo not shown) [Example 166, N-(1-azabicyclo[2.2.1]heptan-3-yl)-4-(4-chlorophenyl)phthalazin-1-amine], 3310 nM; in that of `CN1CCCC(Nc2nnc(-c3ccc(C(C)(C)C)nc3)c3ccccc23)C1` (stereo not shown) [Example 20, 4-(6-(tert-butyl)pyridin-3-yl)-N-(1-methylpiperidin-3-yl)phthalazin-1-amine], 626 nM.
The same measure, in the same setting: under `Oc1cccc(Nc2nnc(-c3ccc(C4(C(F)(F)F)CC4)cc3)c3ccccc23)c1` [Example 4, 3-((4-(4-(1-(trifluoromethyl)cyclopropyl)phenyl)phthalazin-1-yl)amino)phenol] stands 1410 nM.
For the molecule `CN1CCC[C@@H](Nc2nnc(-c3ccc(C(F)F)cc3)c3ccncc23)C1` [Example 37, (R)-1-(4-(difluoromethyl)phenyl)-N-(1-methylpiperidin-3-yl)pyrido[3,4-d]pyridazin-4-amine], on NLRP3 inflammasome, the midpoint of inhibition, the IC50, lay at 77 nM.
On the same count and under the same terms, under `CN1CCCC(N(C)c2nnc(-c3ccc(Cl)cc3)c3ccccc23)C1` (stereo not shown) [Example 112, 4-(4-chlorophenyl)-N-methyl-N-(1-methylpiperidin-3-yl)phthalazin-1-amine] stands 4250 nM; under `F[C@H]1CNC[C@H](Nc2nnc(-c3ccc(Cl)cc3)c3cnccc23)C1` [Example 187, 4-(4-chlorophenyl)-N-((3R,5R)-5-fluoropiperidin-3-yl)pyrido[3,4-d]pyridazin-1-amine], 3090 nM.
Still for that read-out and setting: in the case of `CN1CC(Nc2nnc(-c3ccc(Cl)cc3)c3ccccc23)CC(F)(F)C1` (stereo not shown) [Example 108, 4-(4-chlorophenyl)-N-(5,5-difluoro-1-methylpiperidin-3-yl)phthalazin-1-amine] it was 3160 nM; in that of `COc1ccc(-c2nnc(NC3CCCN(CCF)C3)c3ccccc23)cc1` (stereo not shown) [Example 141, N-(1-(2-fluoroethyl)piperidin-3-yl)-4-(4-methoxyphenyl)phthalazin-1-amine], 269 nM; in that of `CN1CCCC(Nc2nnc(-c3ccc(Cl)cc3)c3ccncc23)C1` (stereo not shown) [Example 63, 1-(4-chlorophenyl)-N-(1-methylpiperidin-3-yl)pyrido[3,4-d]pyridazin-4-amine], 381 nM.
For `COc1ccc(-c2nnc(N[C@@H]3C[C@@H](F)CN(C)C3)c3cnccc23)c(F)c1` [Example 180, N-((3R,5R)-5-fluoro-1-methylpiperidin-3-yl)-1-(2-fluoro-4-methoxyphenyl)pyrido[3,4-d]pyridazin-4-amine], on NLRP3 inflammasome, half-maximal inhibition (IC50) required 136 nM.
Same read-out and setting: under `Oc1cccc(Nc2nnc(-c3cccc(C4CCC4)c3)c3ccccc23)c1` [Example 6, 3-((4-(3-cyclobutylphenyl)phthalazin-1-yl)amino)phenol] stands 2880 nM.
